Experimental data: the supplement of paper PMC6723410

System: GUMC-403
Test: viability at highest tested concentration (max response) relative to DMSO (% of DMSO control); higher = less cytotoxic
Conditions: library / dose series: MIPE library, 11-point 1:3 dilution, 48 h
How it was run: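 The value is viability at the highest tested concentration, expressed relative to vehicle control. Patient-derived GUMC-403 papilloma cells, grown by conditional reprogramming, were seeded at 700/well in 5 μL F + Y medium in 1536-well plates. After an overnight incubation at 37 °C, they received 23 nL of compound by pin tool for 48 h. Readout was CellTiter-Glo luminescence on a ViewLux, normalised to vehicle wells (100%) and empty wells (0%).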

Row | SMILES | viability (top concentration 46.1 µM) | viability (top concentration 23 µM)
1 | C[C@]\12CC[C@H](O)CC1=C/CC3C2CC[C@@]\4(C)C3C\C=C4[N]5C=NC6=C5C=CC=C6 (stereo not given in full) | 108 | –
2 | O=C(/C=C/c1ccc(O)cc1)c1ccc(O)cc1O | 77 | –
3 | CC(=O)CC(C1=CC=CC=C1)C/2=C(O)/C3=CC=CC=C3OC2=O (stereo not given) | 118 | –
4 | CCC1=C2C=C(OC(=O)N3CCC(CC3)N4CCCCC4)C=CC2=NC\5=C1CN6C(=O)\C7=C(/C=C56)[C@@](O)(CC)C(=O)OC7 | 56.1 | –
5 | CCNc1cc(NC2CCC(O)CC2)nc(Nc2ccc3c(ccn3Cc3ccccc3)c2)n1 (stereo not given) | 99.8 | –
6 | C\C1=C\N([C@H]2C[C@H](N=[N+]=[N-])[C@@H](CO)O2)C(=O)NC1=O | 113 | –
7 | CN(C)C(=O)c1ccc([S+](=O)([O-])c2ccc(NC(=O)[C@@](C)(O)C(F)(F)F)c(Cl)c2)cc1 | 113 | –
8 | CC(C)(C)OC(=O)CN(Cc1ccc(Cl)cc1)Cc1ccc([N+](=O)[O-])s1 | 97.7 | –
9 | CN(C)CCc1c[nH]c2ccc(C[C@H]3COC(=O)N3)cc12 | 106 | –
10 | COc1cc2cc(c1Cl)N(C)C(=O)C[C@H](OC(=O)C(C)C)[C@]1(C)O[C@@H]1[C@H](C)[C@@H]1C[C@@](O)(NC(=O)O1)[C@H](OC)/C=C/C=C(\C)C2 | 122 | –
11 | CC(NC1=CC=CC=C1)C\2=C\C(=C/N3C(=O)\C=C(/N=C23)N4CCOCC4)C (stereo not given) | 79.7 | –
12 | O=C(O)C(=O)Nc1cccc(-c2nnn[nH]2)c1 | 120 | –
13 | CCOc1cc(N)c(Cl)cc1C(=O)NCC1CN(Cc2ccc(F)cc2)CCO1 (stereo not given) | 85.7 | –
14 | NNC(=O)c1ccncc1 | 104 | –
15 | O=C(NCC[S+](=O)([O-])c1ccc(C(F)(F)F)cn1)c1ccc(Cl)cc1 | 107 | –
16 | CCCNC(=O)Nc1ccc(Oc2ncnc3cc(OC)c(OC)cc23)cc1Cl | 92.2 | –
17 | CN(C)CCCC1(c2ccc(F)cc2)OCc2cc(C#N)ccc21 (stereo not given) | 98.5 | –
18 | CC=CC1=C(C(=O)O)N2C(=O)[C@@H](NC(=O)[C@H](N)c3ccc(O)cc3)[C@H]2SC1.O | 147 | –
19 | CNC(=O)c1cc(Oc2ccc(NC(=O)Nc3cc(C(C)(C)C)nn3-c3ccc4ncccc4c3)c(F)c2)ccn1 | 83.8 | –
20 | CN1CCC[C@@H]1CCO[C@](C)(c1ccccc1)c1ccc(Cl)cc1 | 103 | –
21 | Cc1ccc(-c2ncn(-c3ccc(Nc4nccc(-c5cccc(N6CCOCC6)c5)n4)cc3)n2)cn1 | 32 | –
22 | Cc1csc(-c2nnc(Nc3ccc(Oc4ncccc4-c4ccnc(N)n4)cc3)c3ccccc23)c1 | 101 | –
23 | COc1ccc2[nH]c([S+]([O-])Cc3ncc(C)c(OC)c3C)nc2c1 (stereo not given) | 88.8 | –
24 | OC(CCN1CCCCC1)(C2CC\3CC2\C=C3)C4=CC=CC=C4 (stereo not given) | 136 | –
25 | O=C(Nc1cccc(Cl)c1)Nc1ncc(CCNc2ncnc3ccsc23)s1 | 116 | –
26 | CCOC(=O)N1c2ccc(C(F)(F)F)cc2[C@@H](N(Cc2cc(C(F)(F)F)cc(C(F)(F)F)c2)C(=O)OC)C[C@H]1CC | 87.7 | –
27 | N=C(N)NC(=N)N1CCOCC1 | 132 | –

Row | SMILES | viability (top concentration 46.1 µM) | viability (top concentration 23 µM)
28 | NC(=O)C1CCCc2c1[nH]c1ccc(Cl)cc21 (stereo not given) | 96 | –
29 | CC(C)C[C@H](CC(=O)O)C(=O)N[C@@H](Cc1c[nH]c2ccccc12)C(=O)N[C@@H](C)c1ccccc1 | 108 | –
30 | CN1C[C@H]2c3ccccc3Oc3ccc(Cl)cc3[C@@H]2C1 | 91.4 | –
31 | CC[C@]1(O)C[C@H]2CN(CCC3=C([NH]C4=C3C=CC=C4)[C@@](C2)(C(=O)OC)C5=CC6=C(C=C5OC)N(C=O)[C@H]7[C@](O)([C@H](OC(C)=O)[C@]8(CC)\C=C/C[N@@]9CC[C@]67[C@H]89)C(=O)OC)C1 | 105 | –
32 | Clc1ccc(COC(Cn2ccnc2)c2ccc(Cl)cc2Cl)c(Cl)c1 (stereo not given) | 92.5 | –
33 | CC1(C)O[C@@H]2C[C@H]3[C@@H]4C[C@H](F)C5=CC(=O)C=C[C@]5(C)[C@@]4(F)[C@@H](O)C[C@]3(C)[C@]2(C(=O)CO)O1 | 109 | –
34 | NC\1=N\C(=O)N(\C=C1F)[C@H]2C[C@H](O)[C@@H](CO)O2 | 108 | –
35 | CC(Cc1ccc(O)c(O)c1)(NN)C(=O)O (stereo not given) | 96 | –
36 | CC(C)=CCC/C(C)=C/CC/C(C)=C/CC/C(C)=C/CC/C(C)=C/CC/C(C)=C/CC/C(C)=C/CC/C(C)=C/CC/C(C)=C/CO | 104 | –
37 | OC1=C(Cl)C=C(N\C2=C(\C(=O)NC2=O)C3=C(C=CC=C3)[N+]([O-])=O)C=C1 | 103 | –
38 | CN1CCN(CCCN2c3ccccc3Sc3ccc(C(F)(F)F)cc32)CC1 | 79.1 | –
39 | CCCCNc1cc(C(=O)O)cc([S+](N)(=O)[O-])c1Oc1ccccc1 | 138 | –
40 | Cc1ccc(/C=N/NC(=O)c2ccccc2Oc2ccccc2)o1 | 92 | –
41 | NC\1=N\C(=O)N(\C=N1)[C@H]2C[C@H](O)[C@@H](CO)O2 | 105 | –
42 | COc1cc2ncnc(Nc3ccc(F)c(Cl)c3)c2cc1NC(=O)/C=C/CN1CCCCC1 | 63.8 | –
43 | COC1(C[S+]([O-])c2ccccc2)CCN(CCc2c[nH]c3ccc(F)cc23)CC1 (stereo not given) | 101 | –
44 | COCCCC/C(=N\OCCN)c1ccc(C(F)(F)F)cc1 | 90 | –
45 | COc1ccc(-c2cc3nccn3c(Nc3ncccc3C(N)=O)n2)cc1OC | 107 | –
46 | O=C(C=CC#Cc1cccc(N[S+](=O)([O-])c2ccccc2)c1)NO | 108 | –
47 | Nc1ccc(C(=O)Nc2cccc(-c3nc(N4CCOCC4)c4oc5ncccc5c4n3)c2)cn1 | 101 | –
48 | CNC1[C@@H](O)C(O[C@@H]2C(O)C(O[C@H]3O[C@H]([C@@H](C)NC)CC[C@H]3N)[C@@H](N)C[C@H]2N)OC[C@]1(C)O (stereo not given in full) | 101 | –
49 | COC[C@@H](NC(C)=O)C(=O)NCc1ccccc1 | 133 | –
50 | [NH2][Pt]([NH2])([Cl])[Cl] | 128 | –
51 | Clc1cccc(-c2nnnn2Cc2cccnc2)c1Cl | 113 | –
52 | CO/N=C(\C(=O)N[C@@H]1C(=O)N2C(C(=O)OCOC(=O)C(C)(C)C)=C(/C=C\c3scnc3C)CS[C@H]12)c1csc(N)n1 | 137 | –
53 | O=C1CSC(=O)N1C(CCc1ccncc1)COc1ccc(-c2cccc([N+](=O)[O-])c2)cc1 (stereo not given) | 79.8 | –
54 | CCCC1OC2C[C@H]3[C@@H]4CCC5=CC(=O)C=C[C@]5(C)[C@H]4C(O)C[C@]3(C)[C@]2(C(=O)CO)O1 (stereo not given in full) | 121 | –

Row | SMILES | viability (top concentration 46.1 µM) | viability (top concentration 23 µM)
55 | COC(=O)C1C2CC3c4[nH]c5cc(OC)ccc5c4CCN3CC2CC(OC(=O)c2cc(OC)c(OC)c(OC)c2)C1OC (stereo not given) | 101 | –
56 | O=C(O)c1cccnc1Nc1cccc(C(F)(F)F)c1 | 129 | –
57 | Cc1ccc(F)c(NC(=O)Nc2ccc(-c3cccc4[nH]nc(N)c34)cc2)c1 | 50.7 | –
58 | CC(=O)OCC(=O)[C@@]1(O)CC[C@H]2[C@@H]3CCC/4=C/C(=O)/C=C\[C@]4(C)[C@H]3[C@@H](O)C[C@]12C | 123 | –
59 | CCC(=O)O[C@@]1([C@@H](C)C[C@H]2[C@@H]3CCC/4=C/C(=O)/C=C\[C@]4(C)[C@@]3(F)[C@@H](O)C[C@]12C)C(=O)CCl | 148 | –
60 | CC(C)OC1=CC=C2C(=C1)O\C=C(/C2=O)C3=CC=CC=C3 | 111 | –
61 | Nc1ncnc2c1ncn2[C@@H]1O[C@H](CO)C[C@H]1O | 97.3 | –
62 | COc1ccc2c(c1OC)CN1CCc3cc4c(cc3C1C2)OCO4 (stereo not given) | 121 | –
63 | C[S+](=O)([O-])OCCCCO[S+](C)(=O)[O-] | 134 | –
64 | CCOC(=O)c1ccc(C#Cc2ccc3c(c2)C(C)(C)CCS3)nc1 | 118 | –
65 | C[C@@]1(C(=O)Nc2ccc(F)nc2)CCCN1c1nc(Nc2cc(C3CC3)[nH]n2)c2cccn2n1 | 63.1 | –
66 | COc1cc(C)c(Sc2cnc(NC(=O)c3ccc(CNC(C)C(C)C)cc3)s2)cc1C(=O)N1CCN(C(C)=O)CC1 (stereo not given) | 85.7 | –
67 | CCc1cc(-c2n[nH]c(C)c2-c2ccc3c(c2)OCCO3)c(O)cc1O | 88.7 | –
68 | Cc1cc(CN2CCN(c3c(Br)cnc4[nH]c(-c5ccc(N6CCN(C)CC6)cc5)nc34)CC2)no1 | 108 | –
69 | CC/1=C(/N2[C@H](SC1)[C@H](NC(=O)C(N)C3=CC=CC=C3)C2=O)C(O)=O (stereo not given in full) | 106 | –
70 | CC(C)c1noc(N2CCC(COc3ccc(-c4ccc([S+](C)(=O)[O-])cc4)nc3)CC2)n1 | 91.9 | –
71 | CCOC(=O)[C@@H](N)Cc1ccc(-c2cc(O[C@H](c3ccc(Cl)cc3-n3ccc(C)n3)C(F)(F)F)nc(N)n2)cc1.O=C(O)CNC(=O)c1ccccc1 | 117 | –
72 | C[C@@H]1C[C@H]2[C@@H]3\C=C(C)/C4=C/C5=C(C[C@]4(C)[C@H]3[C@@H](O)C[C@]2(C)[C@@]1(O)C(=O)CO)C=N[N]5C6=CC=CC=C6 | 125 | –
73 | N#Cc1ccc(C(c2ccc(C#N)cc2)n2cncn2)cc1 | 95.7 | –
74 | CN(C)[C@H]\1[C@@H]2[C@@H](O)[C@@H]\3C(=C)C4=C(C(=CC=C4)O)C(=O)C3=C(\O)[C@@]2(O)C(=O)\C(=C1O)C(N)=O | 96.5 | –
75 | Nc1nc(-c2nn(Cc3ccccc3F)c3ncccc23)nc(N)c1N1CCOCC1 | 111 | –
76 | CN(C)c1cc(NC(=O)CNC(C)(C)C)c(O)c2c1C[C@H]1C[C@H]3[C@H](N(C)C)C(O)=C(C(N)=O)C(=O)[C@@]3(O)C(O)=C1C2=O | 110 | –
77 | CN1C(=O)\C(=C/C2=C1N=C(NC3CCOCC3)N=C2)OC4=C(F)C=C(F)C=C4 | 85.5 | –
78 | Nc1nc(F)nc2c1ncn2[C@@H]1O[C@H](COP(=O)(O)O)[C@@H](O)[C@@H]1O | 101 | –
79 | CC(COc1ccccc1)N(CCCl)Cc1ccccc1 (stereo not given) | 122 | –
80 | CN1CCCN(CC1)C2=CC=C3C(=O)\C(=C/4SC5=C(C=CC=C5)N4C3=N2)C(=O)NCC6=CN=C(C)C=N6 | – | 101
